Paper PMC8859982 (Journal of medicinal chemistry, 2018)
≈ marks a conversion by molar mass, not a printed value. Read-outs that look alike come from different tables or passages of the source.

How the values were obtained:
[1] = pH 7.4; cited from earlier work
DHODH = DHODH (Homo sapiens, UniProt Q02127); assay: DHODH inhibition assay; type: biochemical; conditions: for LipE: lipophilic ligand efficiency from DHODH pIC50 (M) and cLogP
Thermodynamic solubility = type: physicochemical; conditions: for solubility thermodynamic: PBS, pH 7.4, Thermodynamic solubility, PBS pH 7.4, CLND, each entry a single run
[2] = clinical trial, cited from earlier work
[3] = Pharmacokinetic study in female CD-1 mice; type: in vivo
MIA PaCa-2 = conditions: MIA PaCa-2, comparator brequinar
HCT-116 = conditions: HCT-116, comparator brequinar

Sequence of DHODH (Q02127 whole entry): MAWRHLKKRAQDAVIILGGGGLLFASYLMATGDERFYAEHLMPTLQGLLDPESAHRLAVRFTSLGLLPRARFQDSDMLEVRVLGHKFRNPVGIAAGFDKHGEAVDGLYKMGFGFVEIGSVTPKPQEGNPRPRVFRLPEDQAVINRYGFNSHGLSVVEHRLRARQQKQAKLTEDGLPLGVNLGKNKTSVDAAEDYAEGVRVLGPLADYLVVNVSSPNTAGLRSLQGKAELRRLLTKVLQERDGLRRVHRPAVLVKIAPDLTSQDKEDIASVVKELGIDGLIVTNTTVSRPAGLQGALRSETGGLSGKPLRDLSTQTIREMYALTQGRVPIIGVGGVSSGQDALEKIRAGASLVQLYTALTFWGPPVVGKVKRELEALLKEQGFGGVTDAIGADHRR

In the case of Cc1c(-c2ccc(-c3ccccc3F)cc2)nc2ccc(F)cc2c1C(=O)O [Brequinar sodium], the water solubility [1] is listed as less than 100 µg/mL.

In the case of Cc1c(-c2ccc(-c3ccccc3F)cc2)nc2ccc(F)cc2c1C(=O)O [compound 1, brequinar], the LipE (DHODH) is given as 2.20, the solubility thermodynamic (Thermodynamic solubility) is given as 407 µg/mL (≈ 1090 µM) and the CL ([2]; IV 8 mg/m^2) is given as 3.2 L/h/m^2. For the same compound, the Cmax ([2]; IV 8 mg/m^2) was 1800 ng/mL, the Vss ([2]; IV 8 mg/m^2) was 8.2 L/m^2 and the t1/2 ([2]; IV 8 mg/m^2) was 2.9 h. For the same compound, the CL ([2]; IV 16 mg/m^2) was 4.9 L/h/m^2, the Cmax ([2]; IV 16 mg/m^2) was 2700 ng/mL and the Vss ([2]; IV 16 mg/m^2) was 11.6 L/m^2. The t1/2 ([2]; IV 16 mg/m^2) was 3.1 h and the Vss ([2]; IV 36 mg/m^2) was 7.48 L/m^2.

For O=C(O)c1cc(-c2ccc(C3CCCCC3)cc2)nc2ccccc12 [compound 3, 2-(4-Cyclohexylphenyl)quinoline-4-carboxylic Acid], the solubility thermodynamic (Thermodynamic solubility) was 14.5 µg/mL (≈ 43.8 µM).

With O=C(O)c1cc(-c2ccc(-c3cccnc3F)cc2)nc2ccccc12 [compound 28, 2-(4-(2-Fluoropyridin-3-yl)phenyl)quinoline-4-carboxylic Acid] the “fold less potent than 22 (DHODH)” value (DHODH; comparator 22) was 9 fold, the “fold less potent than 26 (DHODH)” value (DHODH; comparator 26) was 64 fold and the LipE (DHODH) was 1.45.

Work on Cc1c(-c2ccc(-c3cccnc3Cl)cc2)nc2ccc(F)cc2c1C(=O)O [compound 41, 2-(4-(2-Chloropyridin-3-yl)phenyl)-6-fluoro-3-methylquinoline-4-carboxylic Acid] yielded a half-life ([3]; female, CD-1, mouse, plasma, intravenous, oral) of 2.73 to 2.78 h, a CL-F ([3]; mice, PO 20 mg/kg) of 9.25 mL/min/kg and a Vz_F ([3]; mice, PO 20 mg/kg) of 2.226 L/kg. It also gave a solubility thermodynamic (Thermodynamic solubility) of 393 µg/mL (≈ 1000 µM).

Work on Cc1c(-c2ccc(-c3ccccc3)cc2)nc2ncccc2c1C(=O)O [compound 45, 2-([1,1′-Biphenyl]-4-yl)-3-methyl-1,8-naphthyridine-4-carboxylic Acid] yielded a LipE (DHODH) of 1.75.

In the case of Cc1c(-c2ccc(-c3ccccc3)cc2)nc2cnccc2c1C(=O)O [compound 46, 2-([1,1′-Biphenyl]-4-yl)-3-methyl-1,7-naphthyridine-4-carboxylic Acid], the LipE (DHODH) is reported as 3.39, the “fold more soluble than brequinar” value (Thermodynamic solubility; PBS at pH 7.4) is reported as 2.5–3 × and the solubility thermodynamic (Thermodynamic solubility) is reported as 1050 µg/mL (≈ 3100 µM).

For Cc1c(-c2ccc(-c3ccccc3)cc2)nc2ccncc2c1C(=O)O [compound 47, 2-([1,1′-Biphenyl]-4-yl)-3-methyl-1,6-naphthyridine-4-carboxylic Acid], the LipE (DHODH) was 1.39.

For Cc1c(-c2ccc(-c3ccccc3)cc2)nc2cnc(C(F)(F)F)cc2c1C(=O)O [compound 48, 2-([1,1′-Biphenyl]-4-yl)-3-methyl-6-(trifluoromethyl)-1,7-naphthyridine-4-carboxylic Acid], the LipE (DHODH) was 2.63.

For Cc1c(-c2ccc(-c3cccnc3Cl)cc2)nc2cnccc2c1C(=O)O [compound 49, 2-(4-(2-Chloropyridin-3-yl)phenyl)-3-methyl-1,7-naphthyridine-4-carboxylic Acid], the LipE (DHODH) was 3.46.

With Cc1ccc(-c2ccc(-c3nc4cnccc4c(C(=O)O)c3C)cc2)c(Cl)n1 [compound 50, 2-(4-(2-Chloro-6-methylpyridin-3-yl)phenyl)-3-methyl-1,7-naphthyridine-4-carboxylic Acid] the LipE (DHODH) was 1.65.

Compound Cc1c(-c2ccc(-c3cccnc3Cl)cc2)nc2cnc(C(F)(F)F)cc2c1C(=O)O [compound 51, 2-(4-(2-Chloropyridin-3-yl)phenyl)-3-methyl-6-(trifluoromethyl)-1.7-naphthyridine-4-carboxylic Acid] has a LipE (DHODH) of 2.69.

For Cc1c(-c2ccc(-c3ccccc3F)cc2)nc2cnc(C(F)(F)F)cc2c1C(=O)O [compound 52, 2-(2’-Fluoro-[1,1’-biphenyl]-4-yl)-3-methyl-6-(trifluoromethyl)-1.7-naphthyridine-4-carboxylic Acid], the LipE (DHODH) was 2.74, the “fold more potent than brequinar in the MTT assay” value (MIA PaCa-2) was “at least 2 fold” and the “fold more potent than brequinar in the MTT assay” value (HCT-116) was “at least 2 fold”.
